Results reported in patent US20070082934A1, “Substituted 4-aryloxy and 4-arylsulfanyl-phenyl-2-aminothiazoles as inhibitors of cell proliferation” (priority 2003, published 2007).
“Also recorded” adds a separate entry of the source. Where two headings read alike, the source gives them in different places.

Tests used:
MCF7 cells = assay: Inhibition of breast cell proliferation, SRB assay, 48 hour incubation; assay type: cell-based, human; settings: for inhibition at 100 µM: Homo sapiens
Procedure: MCF7 cells were treated with compounds or vehicle (DMSO). […] Percent inhibition of growth at 100 μM was determined and GI50 values were calculated from log-dose response curves as previously described ([…] et al., Cancer Res., 2003, 63:3211-3220).

[1] = system: human breast cancer cell lines; assay: NCI anti-tumor screen, breast cancer cell line panel as a whole; assay type: cell-based; settings: for selectivity among breast cancer cell lines: comparison of GI50 values across cell lines; for growth inhibition of human breast tumor cells, in words: estrogen-positive and negative breast cancer cell lines
Procedure: (§1) Compounds were tested at the National Cancer Institute's Developmental Therapeutics Program, in duplicate, against 60 human tumor cell lines at a minimum of five concentrations at 10-fold dilutions: A 48 hour continuous drug exposure protocol was used, and a sulforhodamine B (SRB) protein assay was used to estimate cell viability or growth.
(§2) Upon completion of the synthesis, the thiazole compounds 17-24 and 27-30 were submitted to the NCI's antitumor screen (see Monks et al., J. Natl. Cancer Inst., 1991, 83:757b 766; Bray and Wickstrom, Biotechniques, 1996, 21:5:780-782) and the results against human breast cancer cell lines are shown in Table 2 as GI50 values.

[2] = system: 60 human tumor cell lines; assay: NCI anti-tumor screen, all NCI cell lines; assay type: cell-based; settings: NCI cell lines other than breast (FIG. 3)
Procedure: FIG. 3 is a graphic representation of a GI50 comparison for compound 17 (4-[4′-(4-Chlorophenoxy)-phenyl]-thiazol-2-yl ammonium iodide) for all NCI cell lines. The ordinate represents growth inhibitor activity and the abscissa indicates the type of tumor as well as each cell line treated with compound 17. L=leukemia; NSCLC Non-small cell lung cancer; C=Colon; CNS=central nervous system; M=Melanoma; O=Ovarian; R=Renal; P=Prostate; B=Breast.
as §1

NCI/ADR-RES = assay: NCI anti-tumor screen, SRB assay, 48 hour exposure; assay type: cell-based, human; settings: adriamycin-resistant cell line
Procedure: as §1, §2

MDA-MB-435 = assay: NCI anti-tumor screen, SRB assay, 48 hour exposure; assay type: cell-based, human; settings: estrogen-negative cell line MDA-MB-435
Procedure: as §1, §2

MCF7 = assay: NCI anti-tumor screen, SRB assay, 48 hour exposure; assay type: cell-based, human; settings: MCF7 breast cancer cell line
Procedure: as §1, §2

HS 578T = assay: NCI anti-tumor screen, SRB assay, 48 hour exposure; assay type: cell-based, human; settings: estrogen-negative HS 578T cell line
Procedure: as §1, §2

T-47D = assay: NCI anti-tumor screen, SRB assay, 48 hour exposure; assay type: cell-based, human; settings: estrogen-positive cell line T-47D
Procedure: as §1, §2

MDA-MB-231/ATCC = assay: NCI anti-tumor screen, SRB assay, 48 hour exposure; assay type: cell-based, human; settings: MDA-MB-231/ATCC breast cancer cell line
Procedure: as §1, §2

BT-549 = assay: NCI anti-tumor screen, SRB assay, 48 hour exposure; assay type: cell-based, human; settings: BT-549 breast cancer cell line
Procedure: as §1, §2

Row | melting point | Structure (SMILES) | inhibition at 100 µM (MCF7 cells) | GI50 (NCI/ADR-RES; Homo sapiens, NCI/ADR-RES) | GI50 (MDA-MB-435; Homo sapiens) | GI50 (MCF7; Homo sapiens) | GI50 (HS 578T; Homo sapiens) | GI50 (T-47D; Homo sapiens, T47D) | GI50 (MDA-MB-231/ATCC; Homo sapiens) | GI50 (BT-549; Homo sapiens) | % Inhibition of MCF7 cells at 100 μM (MCF7 cells) | selectivity among breast cancer cell lines [1] | further results
1 | – | Nc1nc(-c2ccc(Oc3ccccc3)cc2)cs1 [Compound 16, 4-(4′-Phenoxyphenyl)-thiazol-2-yl ammonium iodide] | 81% | – | – | – | – | – | – | – | – | – | –
2 | – | I.Nc1nc(-c2ccc(Oc3ccc(Cl)cc3)cc2)cs1 [Compound 17, 4-[4′-(4-Chlorophenoxy)-phenyl]-thiazol-2-yl ammonium iodide] | 85% | > 100 µM | > 100 µM | > 100 µM | > 100 µM | 0.917 µM | > 100 µM | > 100 µM | – | – | GI50 ([1]; Homo sapiens, T47D, all breast cancer cell lines except T-47D, read-out: GI50 in all cell lines except T-47D): > 100 µM; activity against other types of cancer [2]: not effective against other types of cancer
3 | – | I.Nc1nc(-c2ccc(Oc3cccc(Cl)c3)cc2)cs1 [Compound 18, 4-[4-(3′-Chlorophenoxy)-phenyl]-thiazol-2-yl ammonium iodide] | – | – | – | – | – | – | – | – | 100% | active only against estrogen receptor-negative breast cancer | GI50 (NCI/ADR-RES): 13.2 µM; GI50 (MDA-MB-435): 2.1 µM; GI50 (MCF7): 14.6 µM; GI50 (HS 578T): 19.7 µM; GI50 (T-47D): 14 µM; GI50 (MDA-MB-231/ATCC): 4.8 µM; GI50 (BT-549): 14.3 µM
4 | – | I.Nc1nc(-c2ccc(Oc3ccccc3Cl)cc2)cs1 [Compound 19, 4-[4-(2′-Chlorophenoxy)-phenyl]-thiazol-2-yl ammonium iodide] | – | – | – | – | – | – | – | – | 87% | – | GI50 (NCI/ADR-RES): 25.8 µM; GI50 (MDA-MB-435): 14.8 µM; GI50 (MCF7): 27.4 µM; GI50 (T-47D): 16.4 µM; GI50 (MDA-MB-231/ATCC): 10.5 µM; GI50 (BT-549): 12.8 µM
5 | 202 to 205 °C | I.Nc1nc(-c2ccc(Oc3ccc(Cl)c(Cl)c3)cc2)cs1 [Compound 20, 4-[4′-(3,4-Dichlorophenoxy)-phenyl]-thiazol-2-yl ammonium iodide] | 47% | 1.29 µM | 0.759 µM | 3.02 µM | 2 µM | 20.9 µM | 2.29 µM | 1.91 µM | – | selectivity for the adriamycin-resistant cell line | growth inhibition of human breast tumor cells, in words [1]: low micromolar growth inhibition of most human breast tumor cells; also recorded: low micromolar
6 | 204 to 207 °C | COc1ccc(Oc2ccc(-c3csc(N)n3)cc2)cc1.I [Compound 21, 4-[4′-(4-Methoxyphenoxy)-phenyl]-thiazol-2-yl ammonium iodide] | 24% | – | – | – | – | – | – | – | – | – | –
7 | 118 to 120 °C | Cc1ccc(Oc2ccc(-c3csc(N)n3)cc2)cc1.I [Compound 22, 4-[4′-(p-Toluoxy)phenyl]-thiazol-2-yl ammonium iodide] | 98% | 18.2 µM | 11.8 µM | 17.2 µM | 22.7 µM | 0.54 µM | 14.1 µM | – | – | – | –
8 | 253 to 254 °C | I.Nc1nc(-c2ccc(Oc3ccc(-c4ccccc4)cc3)cc2)cs1 [Compound 23, 4-[4′-(Biphenyl-4-yloxy)-phenyl]-thiazol-2-yl ammonium iodide] | 53% | 17.4 µM | 18.6 µM | 14.3 µM | 18.8 µM | 3.91 µM | 12.6 µM | 10.4 µM | – | – | –
9 | 137 to 140 °C | I.Nc1nc(-c2ccc(Oc3ccc(Oc4ccccc4)cc3)cc2)cs1 [Compound 24, 4-[4′-(4-Phenoxy-phenoxy)-phenyl]-thiazol-2-yl ammonium iodide] | 81% | 35.9 µM | 22.7 µM | 35.1 µM | 27.8 µM | 4.9 µM | 12.6 µM | 16.1 µM | – | – | –
10 | – | CCOC(=O)c1cccc(Oc2ccc(-c3csc(N)n3)cc2)c1.I [Compound 25, 4-[4-(3′-Ethoxycarbonyl-phenoxy)-phenyl]-thiazol-2-yl ammonium iodide] | – | – | – | – | – | – | – | – | 84% | – | –
11 | 129 to 132 °C | I.Nc1nc(-c2ccc(Sc3ccccc3)cc2)cs1 [Compound 26, 4-(4′-Phenylsulfanyl-phenyl)-thiazol-2-yl ammonium iodide] | 79% | – | – | – | – | – | – | – | – | – | –
12 | – | I.Nc1nc(-c2ccc(Sc3ccc(Cl)cc3)cc2)cs1 [Compound 27, 4-[4-(4′-Chloro-phenylsulfanyl)-phenyl]-thiazol-2-yl ammonium iodide] | – | – | – | – | – | – | – | – | 89% | active only against estrogen receptor-negative breast cancer | GI50 (NCI/ADR-RES): 17.5 µM; GI50 (MDA-MB-435): 1.49 µM; GI50 (MCF7): 21.6 µM; GI50 (HS 578T): 18.8 µM; GI50 (T-47D): 24.4 µM; GI50 (MDA-MB-231/ATCC): 12.4 µM; GI50 (BT-549): 15.3 µM
13 | – | I.Nc1nc(-c2ccc(Sc3ccc(Cl)c(Cl)c3)cc2)cs1 [Compound 28, 4-[4-(3′,4′-Dichloro-phenylsulfanyl)-phenyl]-thiazol-2-yl ammonium iodide] | – | – | – | – | – | – | – | – | 54% | selectivity for the adriamycin-resistant cell line | GI50 ([1]; all breast cancer cell lines except HS 578T, read-out: GI50 values in all cell lines except HS 578T): 1 to 5 µM; growth inhibition of human breast tumor cells, in words [1]: low micromolar growth inhibition of most human breast tumor cells; GI50 (NCI/ADR-RES): 3.37 µM; GI50 (MDA-MB-435): 1.11 µM; GI50 (MCF7): 5.68 µM; GI50 (T-47D): 2.79 µM; GI50 (MDA-MB-231/ATCC): 3.73 µM; GI50 (BT-549): 5.95 µM
14 | – | COc1ccc(Sc2ccc(-c3csc(N)n3)cc2)cc1.I [Compound 29, 4-[4-(4′-Methoxy-phenylsulfanyl)-phenyl]-thiazol-2-yl ammonium iodide] | – | – | – | – | – | – | – | – | 11% | – | –
15 | 182 to 185 °C | Cc1ccc(Sc2ccc(-c3csc(N)n3)cc2)cc1.I [Compound 30, 4-(4′p-Tolylsulfanyl-phenyl)-thiazol-2-yl ammonium iodide] | 96% | 64.6 µM | 1.4 µM | 25.9 µM | 59.6 µM | 68 µM | > 100 µM | 25.7 µM | – | active only against estrogen receptor-negative breast cancer | –
